Measured values as given in patent US8691757B2 (Bristol-Myers Squibb Company, priority 2011, dated 2014).

Columns and labels:
[1] = test system: HCV genotype 1a (H77 strain) replicon in HUH-7 cells; test: HCV replicon luciferase reporter assay, genotype 1a; assay type: cell-based; conditions: Hepatitis C virus, 72 h, HCV genotype 1a replicon, 3 days incubation, Renilla luciferase
Text: (§1) An HCV replicon whole cell system was established as described by Lohmann V, Korner F, Koch J, Herian U, Theilmann L, Bartenschlager R., Science 285(5424):110-3 (1999) and modified to introduce a luciferase reporter, as first described by Krieger et al (Krieger N, Lohmann V, and Bartenschlager R, J. Virol. 75(10):4614-4624 (2001)). CDNA encoding a humanized form of the Renilla luciferase gene and a linker sequence fused directly to the 3′-end of the luciferase gene were introduced into the replicon construct using an Asc1 restriction site located in core, directly upstream of the neomycin marker gene. The adaptive mutation at position 1179 (serine to isoleucine) was also introduced (Blight K J, Kolykhalov, A A, Rice, C M, Science 290(5498):1972-1974). A stable cell line constitutively expressing this HCV replicon construct was generated by first linearizing plasmid DNAs with ScaI. RNA transcripts were synthesized in vitro using the T7 MegaScript transcription kit (Ambion, Austin, Tex.) according to manufacturer's directions. In vitro transcripts of the cDNA were transfected into the human hepatoma cell line, HUH-7. […] Resulting cell lines were characterized for positive and negative strand RNA production and protein production over time.
A stable HCV replicon luciferase reporter cell line representing the genotype 1a H77 strain (Yanagi M, Purcell R H, Emerson S U, et al. Transcripts from a single full-length cDNA clone of hepatitis C virus are infectious when directly transfected into the liver of a chimpanzee. Proc Natl Acad Sci USA 1997; 94(16):8738-8743) was generated as described previously for the genotype 1b (Con1) replicon luciferase cell line. The replicon construct was modified by introducing mutations were introduced into the genes encoding the NS3 helicase domain (proline replaced by leucine at position 1496) and NS5A (serine to isoleucine at position 2204) to improve replication in cell culture.
(§2) HCV replicon luciferase assays were developed to monitor the inhibitory effects of compounds described in the disclosure on HCV genotypes 1a and 1b viral replication. HUH-7 cells, constitutively expressing the HCV replicon, were grown in Dulbecco's Modified Eagle Media (DMEM) (Gibco-BRL) containing 10% Fetal calf serum (FCS) (Sigma) and 1 mg/mL G418 (Gibco-BRL). Compounds were serially diluted 3 folds in DMSO for a twenty-point titration and subsequently transferred to sterile 384-well tissue-culture treated plates (Corning cat #3571). The plates were then seeded with 50 μL of cells at a density of 3.0×10^3 cells/well in DMEM containing 4% FCS (final DMSO concentration at 0.5%). After 3 days incubation at 37° C., cells were analyzed for Renilla Luciferase activity using the EnduRen as substrate (Promega cat #E6485). The EnduRen substrate was diluted in DMEM and then added to the plates to a final concentration of 7.5 μM. The plates were incubated for 2 hrs at 37° C. and then read immediately for 30 seconds with Viewlux Imager (PerkinElmer) using a luminescence program. To assess cytotoxicity of compounds, CC50 values were generated by multiplexing the EnduRen-containing plates with Cell Titer-Blue (Promega, cat #G8082). Cell-Titer Blue (3 μL) was added to each well and incubated for 8 hrs at 37° C. The fluorescence signal from each well was read, with an excitation wavelength at 525/10 nm and an emission wavelength of 598/10 nm, using the Viewlux Imager.
(§3) The EC50 values for compounds were calculated by using a four-parameter logistic equation: y=A+((B−A)/(1+((C/x)^D))), where A and B denotes minimal and maximal % inhibition, respectively, C is the EC50, D is the hill slope and x represents compound concentration.

[2] = test system: HCV genotype 1b (Con1) replicon in HUH-7 cells; test: HCV replicon luciferase reporter assay, genotype 1b; assay type: cell-based; conditions: Hepatitis C virus, 72 h, HCV genotype 1b replicon, 3 days incubation, Renilla luciferase
Text: as §1, with “time. […]” for “time.”
as §2, §3

SMILES	EC50 ([1]; range classes) [nM]	EC50 ([2]; range classes) [nM]	EC50 ([1]; numeric values) [nM]	EC50 ([2]; numeric values) [nM]
COc1cnc(O[C@@H]2C[C@H]3C(=O)N[C@]4(C(=O)NS(=O)(=O)C5CC5)C[C@H]4/C=C\[C@H](C)CCC[C@@H](C)[C@H](NC(=O)OC(C)(C)C(F)(F)F)C(=O)N3C2)c2ccccc12 [Compound 3, 1,1,1-trifluoro-2-methylpropan-2-yl (2R,6S,7R,11R,13aS,14aR,16aS,Z)-14a-(cyclopropylsulfonylcarbamoyl)-2-(4-methoxyisoquinolin-1-yloxy)-7,11-dimethyl-5,16-dioxo-1,2,3,5,6,7,8,9,10,11,13a,14,14a,15,16,16a-hexadecahydrocyclopropa[e]pyrrolo[1,2-a][1,4]diazacyclopentadecin-6-ylcarbamate]	0.2 to 1	0.2 to 1		
COc1cnc(O[C@@H]2C[C@H]3C(=O)N[C@]4(C(=O)NS(=O)(=O)C5CC5)C[C@H]4/C=C\[C@@H](C)CCC[C@@H](C)[C@H](NC(=O)OC(C)(C)C(F)(F)F)C(=O)N3C2)c2ccccc12 [Compound 4, 1,1,1-trifluoro-2-methylpropan-2-yl (2R,6S,7R,11S,13aS,14aR,16aS,Z)-14a-(cyclopropylsulfonylcarbamoyl)-2-(4-methoxyisoquinolin-1-yloxy)-7,11-dimethyl-5,16-dioxo-1,2,3,5,6,7,8,9,10,11,13a,14,14a,15,16,16a-hexadecahydrocyclopropa[e]pyrrolo[1,2-a][1,4]diazacyclopentadecin-6-ylcarbamate]			4.9	2.8
COc1cnc(O[C@@H]2C[C@H]3C(=O)N[C@]4(C(=O)NS(=O)(=O)C5CC5)C[C@H]4/C=C\[C@H](C)CCC[C@@H](C)[C@H](NC(=O)OC(C)(C)C)C(=O)N3C2)c2cccc(Cl)c12 [Compound 5, tert-butyl (2R,6S,7R,11R,13aS,14aR,16aS,Z)-2-(5-chloro-4-methoxyisoquinolin-1-yloxy)-14a-(cyclopropylsulfonylcarbamoyl)-7,11-dimethyl-5,16-dioxo-1,2,3,5,6,7,8,9,10,11,13a,14,14a,15,16,16a-hexadecahydrocyclopropa[e]pyrrolo[1,2-a][1,4]diazacyclopentadecin-6-ylcarbamate]			0.41	1.2
COc1cnc(O[C@@H]2C[C@H]3C(=O)N[C@]4(C(=O)NS(=O)(=O)C5CC5)C[C@H]4/C=C\[C@@H](C)CCC[C@@H](C)[C@H](NC(=O)OC(C)(C)C)C(=O)N3C2)c2cccc(Cl)c12 [Compound 6, tert-butyl (2R,6S,7R,11S,13aS,14aR,16aS,Z)-2-(5-chloro-4-methoxyisoquinolin-1-yloxy)-14a-(cyclopropylsulfonylcarbamoyl)-7,11-dimethyl-5,16-dioxo-1,2,3,5,6,7,8,9,10,11,13a,14,14a,15,16,16a-hexadecahydrocyclopropa[e]pyrrolo[1,2-a][1,4]diazacyclopentadecin-6-ylcarbamate]	1.01 to 2	2.01 to 5		
COc1cnc(O[C@@H]2C[C@H]3C(=O)N[C@]4(C(=O)NS(=O)(=O)C5CC5)C[C@H]4/C=C\[C@H](C)CCC[C@@H](C)[C@H](NC(=O)OC(C)(C)C(F)(F)F)C(=O)N3C2)c2cccc(Cl)c12 [Compound 7, 1,1,1-trifluoro-2-methylpropan-2-yl (2R,6S,7R,11R,13aS,14aR,16aS,Z)-2-(5-chloro-4-methoxyisoquinolin-1-yloxy)-14a-(cyclopropylsulfonylcarbamoyl)-7,11-dimethyl-5,16-dioxo-1,2,3,5,6,7,8,9,10,11,13a,14,14a,15,16,16a-hexadecahydrocyclopropa[e]pyrrolo[1,2-a][1,4]diazacyclopentadecin-6-ylcarbamate]	1.01 to 2	0.2 to 1		
COc1cnc(O[C@@H]2C[C@H]3C(=O)N[C@]4(C(=O)NS(=O)(=O)C5CC5)C[C@H]4/C=C\[C@@H](C)CCC[C@@H](C)[C@H](NC(=O)OC(C)(C)C(F)(F)F)C(=O)N3C2)c2cccc(Cl)c12 [Compound 8, 1,1,1-trifluoro-2-methylpropan-2-yl (2R,6S,7R,11S,13aS,14aR,16aS,Z)-2-(5-chloro-4-methoxyisoquinolin-1-yloxy)-14a-(cyclopropylsulfonylcarbamoyl)-7,11-dimethyl-5,16-dioxo-1,2,3,5,6,7,8,9,10,11,13a,14,14a,15,16,16a-hexadecahydrocyclopropa[e]pyrrolo[1,2-a][1,4]diazacyclopentadecin-6-ylcarbamate]	2.01 to 5	1.01 to 2		
COc1ccc2c(O[C@@H]3C[C@H]4C(=O)N[C@]5(C(=O)NS(=O)(=O)C6CC6)C[C@H]5/C=C\[C@H](C)CCC[C@@H](C)[C@H](NC(=O)OC(C)(C)C(F)(F)F)C(=O)N4C3)nccc2c1 [Compound 9, 1,1,1-trifluoro-2-methylpropan-2-yl (2R,6S,7R,11R,13aS,14aR,16aS,Z)-14a-(cyclopropylsulfonylcarbamoyl)-2-(6-methoxyisoquinolin-1-yloxy)-7,11-dimethyl-5,16-dioxo-1,2,3,5,6,7,8,9,10,11,13a,14,14a,15,16,16a-hexadecahydrocyclopropa[e]pyrrolo[1,2-a][1,4]diazacyclopentadecin-6-ylcarbamate]			1	0.36
COc1ccc2c(O[C@@H]3C[C@H]4C(=O)N[C@]5(C(=O)NS(=O)(=O)C6(CF)CC6)C[C@H]5/C=C\[C@H](C)CCC[C@@H](C)[C@H](NC(=O)OC(C)(C)C)C(=O)N4C3)ncc(OC)c2c1 [Compound 11, tert-butyl (2R,6S,7R,11R,13aS,14aR,16aS,Z)-2-(4,6-dimethoxyisoquinolin-1-yloxy)-14a-(1-(fluoromethyl)cyclopropylsulfonylcarbamoyl)-7,11-dimethyl-5,16-dioxo-1,2,3,5,6,7,8,9,10,11,13a,14,14a,15,16,16a-hexadecahydrocyclopropa[e]pyrrolo[1,2-a][1,4]diazacyclopentadecin-6-ylcarbamate]	2.01 to 5	0.2 to 1		
COc1ccc2c(O[C@@H]3C[C@H]4C(=O)N[C@]5(C(=O)NS(=O)(=O)C6(CF)CC6)C[C@H]5/C=C\[C@H](C)CCC[C@@H](C)[C@H](NC(=O)OC(C)(C)C(F)(F)F)C(=O)N4C3)ncc(OC)c2c1 [Compound 12]	2.01 to 5	1.01 to 2		
COc1ccc2c(O[C@@H]3C[C@H]4C(=O)N[C@]5(C(=O)NS(=O)(=O)C6(CF)CC6)C[C@H]5/C=C\[C@@H](C)CCC[C@@H](C)[C@H](NC(=O)OC(C)(C)C(F)(F)F)C(=O)N4C3)ncc(OC)c2c1 [Compound 13]	5.01 to 68	2.01 to 5		
